Assay results from patent US8173668B1 (Alcon Research, Ltd., priority 2007, dated 2012).

Key:
[1] = test system: Human trabecular meshwork (TM) cells; test: PGE2 production (RIA) in human trabecular meshwork cells; assay type: cell-based; settings: 1 h at 37° C., BK 100 nM or 1 μM, fluprostenol 1 μM, non-peptide agonists 1 μM or 10 μM, FIG. 6
Experimental: The ability of BK agonists to stimulate prostaglandin E2 (PGE2) production was examined as follows. Human trabecular meshwork (TM) cells were seeded in culture plates and allowed to reach confluence. […] Fluprostenol was used as a positive control. After this time the assay was terminated by placing the assay plates on ice and by the addition of 100 μL of a cell-lysis reagent supplied with the PGE2 radioimmunoassay (RIA) kit (Amersham Pharmacia Biotech, Arlington Heights, Ill.). All reagents and standards supplied in the RIA kit were prepared and the RIA performed according to the manufacturer's instructions. Assay buffer, diluted prostaglandin E2 (PGE2) standard and supernatant from the cell-based experiment (diluted 1:100 v/v) were then pipetted into appropriate tubes as specified in the kit instructions. […]
(§1) After this incubation, all tubes were placed in an ice-bath and 1 ml cold precipitating reagent supplied in the kit was added to the tubes, the content mixed and incubated for 25 min at 4° C. […] The supernatants of all tubes were decanted as specified in the kit instructions and the RIA samples analyzed on a gamma-counter. The levels of PGE2 generated by the test agent were then quantified in comparison with the PGE2-standard curve. Dose-response data for the test agent were constructed and the potency and intrinsic activity determined as described above for other assays.

[2] = test system: anterior eye segments of pig eyes; test: Outflow facility in perfused anterior eye segments; settings: 1 μM, perfused porcine anterior eye segments, n=5; FIG. 8
Experimental: Anterior eye segments obtained from postmortem porcine eyes were used to study the effects of non-peptide agonists on fluid outflow through the trabecular meshwork and Schlemms' canal (Erickson-Lamey et al., Curr. Eye Res. 7: 799-807, 1988; Vaajanen et al. J. Ocular Pharmacol. Ther. 23: 124-131, 2007). The postmortem eyes were placed in DMEM containing 50 U/ml penicillin, 50 μg/mL streptomycin, and 5 μg/mL amphotericin B prior to dissection under sterile conditions. Eyes were bisected at the to equator and the anterior chamber transferred to a petri dish. The lens was removed and the remaining choroid, iris, and ciliary body gently teased away. […] Perfusion pressure for standard perfusion was maintained at a constant level of 10 mmHg, and rate of fluid outflow monitored continuously (i.e. by means of a Model ACCU 124 analytical balance; Fisher Scientific, Pittsburgh, Pa.) throughout the experiment. The rate of fluid flow was recorded by a computer utilizing Collect XL software (Lab Tronics, Inc; Guelph, Ontario, Canada). Outflow facility was calculated as the ratio of flow rate to perfusion pressure (μL/min/mmHg).
Preparations were allowed to stabilize overnight (14-16 hr), and baseline facilities were then recorded for 40-60 min. […]

[3] = target: human cloned B2-receptors (Homo sapiens, UniProt P30411); test: HTRF-based assay of endogenous IP1 production in CHO cells; assay type: cell-based; settings: CHO cells expressing human cloned B2-receptors, read-out: EC50, production of endogenous IP1 from PI turnover
[4] = test system: h-NPE cells; test: Prostaglandin production in h-NPE cells; assay type: cell-based, human; settings: 1-10 μM
Experimental: A functional assay to discover BK agonists may involve the measurement of prostaglandin E2 (PGE2) production (Wiernas et al. Brit. J. Pharmacol. 123: 1127-1137, 1998), for instance, in cells isolated from human or animal ocular or non-ocular tissues, or cells expressing recombinant (preferably human) BK receptors. Cells expressing BK receptors are seeded in 48-wells culture plates and allowed to reach confluence. After this time the cells are rinsed twice with 0.5 mL of phosphate buffered saline and incubated with the test agent made up in 0.5 mL Dulbeco's modified Eagle's medium (DMEM)/F-12 for 1 h at 37° C. […]
as §1, with “are” for “were”, “is” for “was”, “assays. […]” for “assays.”

human cloned B2-receptors, sequence (P30411 whole entry): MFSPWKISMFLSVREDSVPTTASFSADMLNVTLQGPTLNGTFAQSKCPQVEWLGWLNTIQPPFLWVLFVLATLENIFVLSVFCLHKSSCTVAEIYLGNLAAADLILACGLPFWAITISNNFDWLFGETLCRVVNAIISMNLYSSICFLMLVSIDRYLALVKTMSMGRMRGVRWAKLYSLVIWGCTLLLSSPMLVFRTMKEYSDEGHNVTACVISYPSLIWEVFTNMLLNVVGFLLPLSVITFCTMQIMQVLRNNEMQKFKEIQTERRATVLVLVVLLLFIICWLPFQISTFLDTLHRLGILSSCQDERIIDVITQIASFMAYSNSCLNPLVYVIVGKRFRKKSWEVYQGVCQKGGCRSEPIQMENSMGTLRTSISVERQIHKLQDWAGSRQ

EC50 [3]: 21 nM
SMILES: CNC(=O)c1ccc(/C=C/C(=O)NCC(=O)N(C)c2ccc(Cl)c(COc3cccc4c(OCc5ccccn5)cc(C)nc34)c2Cl)cc1 [FR-190997]
production of endogenous prostaglandins (PGE2) [1]: stimulated production of endogenous prostaglandins
outflow facility [2]: increased the outflow facility flow
production of prostaglandins [4]: 1.26 fold above basal
